PubChem BioAssay AID2060624 (Molecular Pharmacology Branch, DTP, NCI, 2025)

Tested on: 217524-143-R1-J4-PDC spheroids with HUVEC/MSC, viability
Experiment: Anticancer human tumor 217524-143-R1-J4-PDC patient-derived pancreatic carcinoma cell line growth inhibition [CLK]
Settings: for IC50: curve of first compound; for viability, T/C: stronger effect = lower value
Outline: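 Multi-cell-type spheroids combined patient-derived tumor cells with HUVEC endothelial cells and human mesenchymal stem cells. Paired agents were dosed in half-log steps down from about clinical Cmax, or from 10 microM where Cmax was unknown.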
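Note: spheroids exposed to agents for seven days before reading.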
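Throughout, for viability, T/C: 100% = DMSO vehicle control viability.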

`CC(C)CC(NC(=O)C(Cc1ccccc1)NC(=O)c1cnccn1)B(O)O` (centres undefined) + CNC(=O)c1ccc(Nc2nc(OC3CCCC3)c3c(-c4ccc5nc(C)oc5c4)c[nH]c3n2)c(OC)c1 showed an IC50 (second compound 0.0316 µM) of 5.06 nM, an IC50 (second compound 0.1 µM) of 3.04 nM and an IC50 (second compound 0.316 µM) of under 0.949 nM. For the same compound, the IC50 (second compound 1 µM) was under 0.949 nM, the IC50 (second compound 3.16 µM) was under 0.949 nM and the IC50 (second compound 10 µM) was under 0.949 nM. It also gave a viability, T/C (second compound 0.0316 µM, first compound 0.000949 µM) of 90.4%, a viability, T/C (second compound 0.0316 µM, first compound 0.003 µM) of 71.8% and a viability, T/C (second compound 0.0316 µM, first compound 0.00949 µM) of 23.7%. It also gave a viability, T/C (second compound 0.0316 µM, first compound 0.03 µM) of 6.76%, a viability, T/C (second compound 0.0316 µM, first compound 0.0949 µM) of 3.97% and a viability, T/C (second compound 0.0316 µM, first compound 0.3 µM) of 1.1%. The viability, T/C (second compound 0.1 µM, first compound 0.000949 µM) was 45.6%, the viability, T/C (second compound 0.1 µM, first compound 0.003 µM) was 55.1% and the viability, T/C (second compound 0.1 µM, first compound 0.00949 µM) was 17.5%. The viability, T/C (second compound 0.1 µM, first compound 0.03 µM) was 5.06%, the viability, T/C (second compound 0.1 µM, first compound 0.0949 µM) was 2.97% and the viability, T/C (second compound 0.1 µM, first compound 0.3 µM) was 1.89%. The viability, T/C (second compound 0.316 µM, first compound 0.000949 µM) was 40.3%, the viability, T/C (second compound 0.316 µM, first compound 0.003 µM) was 47.1% and the viability, T/C (second compound 0.316 µM, first compound 0.00949 µM) was 18.7%. For the same compound, the viability, T/C (second compound 0.316 µM, first compound 0.03 µM) was 4.6%, the viability, T/C (second compound 0.316 µM, first compound 0.0949 µM) was 3.43% and the viability, T/C (second compound 0.316 µM, first compound 0.3 µM) was 2.04%. For the same compound, the viability, T/C (second compound 1 µM, first compound 0.000949 µM) was 29.1%, the viability, T/C (second compound 1 µM, first compound 0.003 µM) was 38.5% and the viability, T/C (second compound 1 µM, first compound 0.00949 µM) was 7.88%. The viability, T/C (second compound 1 µM, first compound 0.03 µM) was 2.84%, the viability, T/C (second compound 1 µM, first compound 0.0949 µM) was 2.06% and the viability, T/C (second compound 1 µM, first compound 0.3 µM) was 1.44%. It also gave a viability, T/C (second compound 3.16 µM, first compound 0.000949 µM) of 25.7%, a viability, T/C (second compound 3.16 µM, first compound 0.003 µM) of 41.2% and a viability, T/C (second compound 3.16 µM, first compound 0.00949 µM) of 5.46%. For the same compound, the viability, T/C (second compound 3.16 µM, first compound 0.03 µM) was 2.33%, the viability, T/C (second compound 3.16 µM, first compound 0.0949 µM) was 1.76% and the viability, T/C (second compound 3.16 µM, first compound 0.3 µM) was 1.27%. It also gave a viability, T/C (second compound 10 µM, first compound 0.000949 µM) of 24.6%, a viability, T/C (second compound 10 µM, first compound 0.003 µM) of 34.8% and a viability, T/C (second compound 10 µM, first compound 0.00949 µM) of 6.06%. For the same compound, the viability, T/C (second compound 10 µM, first compound 0.03 µM) was 2.66%, the viability, T/C (second compound 10 µM, first compound 0.0949 µM) was 1.59% and the viability, T/C (second compound 10 µM, first compound 0.3 µM) was 0.75%.

With `O=C(c1cc(Cc2n[nH]c(=O)c3ccccc23)ccc1F)N1CCN(C(=O)C2CC2)CC1` + CNC(=O)c1ccc(Nc2nc(OC3CCCC3)c3c(-c4ccc5nc(C)oc5c4)c[nH]c3n2)c(OC)c1 the IC50 (second compound 0.0316 µM) was over 10000 nM, the IC50 (second compound 0.1 µM) was under 31.6 nM and the IC50 (second compound 0.316 µM) was under 31.6 nM. It also gave an IC50 (second compound 1 µM) of under 31.6 nM, an IC50 (second compound 3.16 µM) of under 31.6 nM and an IC50 (second compound 10 µM) of under 31.6 nM. For the same compound, the viability, T/C (second compound 0.0316 µM, first compound 0.0316 µM) was 83.2%, the viability, T/C (second compound 0.0316 µM, first compound 0.1 µM) was 82.8% and the viability, T/C (second compound 0.0316 µM, first compound 0.316 µM) was 95.6%. The viability, T/C (second compound 0.0316 µM, first compound 1 µM) was 115%, the viability, T/C (second compound 0.0316 µM, first compound 3.16 µM) was 109% and the viability, T/C (second compound 0.0316 µM, first compound 10 µM) was 78.5%. For the same compound, the viability, T/C (second compound 0.1 µM, first compound 0.0316 µM) was 44.3%, the viability, T/C (second compound 0.1 µM, first compound 0.1 µM) was 40.1% and the viability, T/C (second compound 0.1 µM, first compound 0.316 µM) was 45.6%. For the same compound, the viability, T/C (second compound 0.1 µM, first compound 1 µM) was 44.1%, the viability, T/C (second compound 0.1 µM, first compound 3.16 µM) was 46.2% and the viability, T/C (second compound 0.1 µM, first compound 10 µM) was 46.3%. For the same compound, the viability, T/C (second compound 0.316 µM, first compound 0.0316 µM) was 37.4%, the viability, T/C (second compound 0.316 µM, first compound 0.1 µM) was 42.7% and the viability, T/C (second compound 0.316 µM, first compound 0.316 µM) was 35.4%. The viability, T/C (second compound 0.316 µM, first compound 1 µM) was 36.1%, the viability, T/C (second compound 0.316 µM, first compound 3.16 µM) was 38.7% and the viability, T/C (second compound 0.316 µM, first compound 10 µM) was 51.8%. The viability, T/C (second compound 1 µM, first compound 0.0316 µM) was 29.4%, the viability, T/C (second compound 1 µM, first compound 0.1 µM) was 30.1% and the viability, T/C (second compound 1 µM, first compound 0.316 µM) was 28%. For the same compound, the viability, T/C (second compound 1 µM, first compound 1 µM) was 32.3%, the viability, T/C (second compound 1 µM, first compound 3.16 µM) was 24.2% and the viability, T/C (second compound 1 µM, first compound 10 µM) was 25.6%. The viability, T/C (second compound 3.16 µM, first compound 0.0316 µM) was 27%, the viability, T/C (second compound 3.16 µM, first compound 0.1 µM) was 23.7% and the viability, T/C (second compound 3.16 µM, first compound 0.316 µM) was 27.8%. The viability, T/C (second compound 3.16 µM, first compound 1 µM) was 26.5%, the viability, T/C (second compound 3.16 µM, first compound 3.16 µM) was 28.4% and the viability, T/C (second compound 3.16 µM, first compound 10 µM) was 29.4%. For the same compound, the viability, T/C (second compound 10 µM, first compound 0.0316 µM) was 24.7%, the viability, T/C (second compound 10 µM, first compound 0.1 µM) was 29.3% and the viability, T/C (second compound 10 µM, first compound 0.316 µM) was 23.4%. It also gave a viability, T/C (second compound 10 µM, first compound 1 µM) of 24.6%, a viability, T/C (second compound 10 µM, first compound 3.16 µM) of 30.7% and a viability, T/C (second compound 10 µM, first compound 10 µM) of 24.7%.
